Assay results reported in PMC8921294, “Inhibition of mitochondrial LonP1 protease by allosteric blockade of ATP binding and hydrolysis via CDDO and its derivatives” (The Journal of Biological Chemistry, 2022).
Several values for one entry are separate records, joined by “and”; a condition that tells them apart may be missing. Equal entries are not always repeated.

Assays:
[1] = target: T1, Human mitochondrial LonP1 (wild-type) ATPase (Homo sapiens, UniProt P36776); assay: Endpoint ATPase assay (ADP-Glo), wild-type LonP1; type: biochemical; conditions: end-point ATPase assay, 1 mM ATP, 60 min preincubation 25 °C; Table 1
T1 construct: hexa-histidine (N); made in house; host or cells: Rosetta 2 E. coli
T1 sequence (P36776 68-959): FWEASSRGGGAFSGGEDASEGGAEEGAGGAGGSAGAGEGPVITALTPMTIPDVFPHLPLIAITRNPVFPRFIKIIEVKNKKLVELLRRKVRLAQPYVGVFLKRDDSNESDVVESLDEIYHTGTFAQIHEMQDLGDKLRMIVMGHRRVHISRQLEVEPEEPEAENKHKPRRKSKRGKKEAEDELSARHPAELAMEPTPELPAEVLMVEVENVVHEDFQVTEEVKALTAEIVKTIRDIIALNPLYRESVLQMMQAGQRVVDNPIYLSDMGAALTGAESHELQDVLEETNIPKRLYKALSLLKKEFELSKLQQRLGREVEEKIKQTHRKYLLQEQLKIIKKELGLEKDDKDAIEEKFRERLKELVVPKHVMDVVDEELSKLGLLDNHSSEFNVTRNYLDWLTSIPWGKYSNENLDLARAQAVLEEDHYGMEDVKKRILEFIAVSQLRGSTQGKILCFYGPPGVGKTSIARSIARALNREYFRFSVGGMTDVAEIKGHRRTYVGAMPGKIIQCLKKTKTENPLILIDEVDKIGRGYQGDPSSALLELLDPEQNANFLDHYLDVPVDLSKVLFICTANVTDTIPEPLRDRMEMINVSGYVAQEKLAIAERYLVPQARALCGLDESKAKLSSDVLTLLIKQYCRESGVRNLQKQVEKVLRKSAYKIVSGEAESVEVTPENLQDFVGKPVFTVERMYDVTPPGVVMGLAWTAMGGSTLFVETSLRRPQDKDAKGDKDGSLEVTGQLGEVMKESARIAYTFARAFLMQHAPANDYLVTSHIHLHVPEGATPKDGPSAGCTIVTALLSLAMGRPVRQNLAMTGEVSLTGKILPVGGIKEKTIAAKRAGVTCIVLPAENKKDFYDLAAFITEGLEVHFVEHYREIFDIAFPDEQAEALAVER
Experimental: ADP-Glo (Promega) assays were performed according to the manufacturer's protocols. Purified wild-type or mutant LonP1 (400 nM monomer), the 26S proteasome (3 nM), or no enzyme controls were preincubated in 96-well plates (60 min, 25 °C) with ten different concentrations of CDDO and its derivatives, TP-82, enoxolone (5 μM) or DMSO vehicle control in buffer (40 mM Tris-HCl (pH 7.5), 20 mM MgCl2, 0.1 mg/ml BSA and 5% DMSO). The 26S and 20S proteasome were also assayed at 0, 0.75, 1.5, 3, 6, and 12 nM in the absence of CDDO derivatives. UltraPure ATP (1 mM final) was added, and reactions (50 μl final) were incubated for 60 min at 25 °C, then 5 μl was transferred in quadruplicate to a 384-well plate. Assay reagents were used to quench further ATPase activity and generate luminescence signals proportional to the concentration of ADP formed. Background (no enzyme control) luminescence values were subtracted, and resultant values were reported as a percentage of the no drug control (100%). Data were fit to four-parameter dose–response curves using GraphPad Prism. The error bars represent the standard deviation (SD) of four replicate reactions from at least three independent experiments.

[2] = target: T2, Human mitochondrial LonP1 (LonP1^WT) ATPase (Homo sapiens, UniProt P36776); assay: Continuous NADH-coupled ATPase assay, wild-type LonP1; type: biochemical; conditions: for Modality (mechanism of LonP1 ATPase inhibition) / Ki / αKi / α: continuous ATPase assay; for Modality (mechanism of LonP1 ATPase inhibition): ATP titrated; for Ki: LonP1 400 nM, 30 min preincubation; for αKi: dissociation constant for ES complex; for α: relates αKi to Ki
T2 construct: hexa-histidine (N); made in house; host or cells: Rosetta 2 E. coli
T2 sequence (P36776 68-959): T1 sequence (P36776 68-959)
Experimental: ATPase reactions (200 μl total) were performed in 96-well plates at room temperature. LonP1 (400 nM monomer) was preincubated with DMSO (1–2%) vehicle control or CDDO derivatives in buffer (50 mM HEPES-KOH pH 7.5, 5 mM magnesium acetate, 75 mM potassium acetate) for 30 to 45 min at room temperature or 30 °C. The reactions were initiated by the addition of phosphoenolpyruvate (PEP, 3 mM), NADH (300 μM), pyruvate kinase and lactate dehydrogenase (PK-LDH) (12–20 U/ml), and ATP concentrations as indicated. The change in NADH absorbance at 340 nm was monitored in Spectramax plate reader for 5 min to obtain reaction velocities. Data were fit to the Michaelis–Menten curve using GraphPad Prism 5, and the error bars represent the standard deviation (SD) of four replicate reactions from at least three independent experiments.

Compound | IC50 [1] | Modality (mechanism of LonP1 ATPase inhibition) [2] | Ki [2] | αKi [2] | α [2] | Ki relative to the Ki of other CDDO derivatives ([2]; fold higher)
COC(=O)[C@]12CCC(C)(C)C[C@H]1[C@H]1C(=O)C=C3[C@@]4(C)C=C(C#N)C(=O)C(C)(C)[C@@H]4CC[C@@]3(C)[C@]1(C)CC2 [CDDO-Me] | 1.9 ± 0.3 µM | noncompetitive | 0.8 ± 0.1 µM | 3.3 ± 1.0 µM | 4.3 | 
CC1(C)CC[C@]2(C(=O)O)CC[C@]3(C)[C@H](C(=O)C=C4[C@@]5(C)C=C(C#N)C(=O)C(C)(C)[C@@H]5CC[C@]43C)[C@@H]2C1 [CDDO, 2-cyano-3,12-dioxooleana-1,9(11)-dien-28-oic acid] | 13 ± 6 µM | noncompetitive | 2.6 ± 0.5 µM | 14 ± 2 µM and 14.0 ± 2.0 µM | 5.4 | 
CC1(C)CC[C@]2(C(=O)OC(=O)[C@]34CCC(C)(C)C[C@H]3[C@H]3C(=O)C=C5[C@@]6(C)C=C(C#N)C(=O)C(C)(C)[C@@H]6CC[C@@]5(C)[C@]3(C)CC4)CC[C@]3(C)[C@H](C(=O)C=C4[C@@]5(C)C=C(C#N)C(=O)C(C)(C)[C@@H]5CC[C@]43C)[C@@H]2C1 [CDDO-anhydride] | 19.4 ± 3.3 µM | competitive | 9.5 ± 1.4 µM |  |  | ~3.5 fold
